Results as given in paper PMC9967275, “Screening the Pathogen Box to Discover and Characterize New Cruzain and TbrCatL Inhibitors” (Pathogens, 2023).
Where two headings read alike, the source gives them in different places.

Experiments:
cruzain = cruzain (Trypanosoma cruzi, UniProt P25779); experiment: biochemical;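 as to Cruzain 0’ Inhibition: at 5 µM compound concentration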;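 as to Cruzain 10’ Inhibition: at 5 µM compound concentration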;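 as to Cruzain Inhibition 0’: at 5 µM compound concentration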;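 as to Cruzain Inhibition 10’: at 5 µM compound concentration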
Sequence of cruzain (P25779 123-337 limits assumed): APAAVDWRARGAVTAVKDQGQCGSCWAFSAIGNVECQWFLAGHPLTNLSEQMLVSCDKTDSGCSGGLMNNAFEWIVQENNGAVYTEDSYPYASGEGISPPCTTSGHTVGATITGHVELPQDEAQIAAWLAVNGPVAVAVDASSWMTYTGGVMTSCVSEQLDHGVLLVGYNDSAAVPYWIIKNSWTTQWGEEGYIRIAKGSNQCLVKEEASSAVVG
Procedure, shortened: (§1)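 Recombinant enzymes assayed by Z-Phe-Arg-AMC cleavage at 25 °C, fluorescence 340/440 nm over 5–7 min, with 10 min or no enzyme–compound preincubation.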

TbrCatL = target: T1, TbrCatL (Trypanosoma brucei rhodesiense, UniProt Q95PM0); experiment: TbrCatL enzymatic inhibition assay (cleavage of fluorogenic substrate Z-FR-AMC); type: biochemical; settings: for TbrCatL 0’ Inhibition / TbrCatL 10’ Inhibition: sheet "Screening results";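 as to TbrCatL 0’ Inhibition: at 5 µM compound concentration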;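 as to TbrCatL 10’ Inhibition: at 5 µM compound concentration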;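 as to TbrCatL Inhibition 0’: at 5 µM compound concentration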;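 as to TbrCatL Inhibition 10’: at 5 µM compound concentration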
T1 construct: Conor Caffrey (University of California San Diego)
T1 sequence (Q95PM0 entry or part of it): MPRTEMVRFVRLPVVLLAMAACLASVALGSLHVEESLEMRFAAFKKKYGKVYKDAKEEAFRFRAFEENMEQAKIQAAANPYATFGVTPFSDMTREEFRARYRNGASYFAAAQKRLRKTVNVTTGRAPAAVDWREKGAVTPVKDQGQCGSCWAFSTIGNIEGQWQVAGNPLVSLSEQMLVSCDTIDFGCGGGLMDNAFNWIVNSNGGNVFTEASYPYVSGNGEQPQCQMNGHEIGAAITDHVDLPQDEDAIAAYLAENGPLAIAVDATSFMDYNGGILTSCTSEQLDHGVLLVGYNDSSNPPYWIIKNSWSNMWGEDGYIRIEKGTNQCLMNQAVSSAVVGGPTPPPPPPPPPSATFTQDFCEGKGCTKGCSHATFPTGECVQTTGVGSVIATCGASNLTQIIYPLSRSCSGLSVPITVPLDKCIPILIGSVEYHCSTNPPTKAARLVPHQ
Procedure, shortened: as §1

[1] = 0’ (pre-incubation time), sheet "Screening results"
[2] = 10’ (pre-incubation time), sheet "Screening results"
[3] = 0’ (no pre-incubation), sheet Screening results
[4] = 10’ (pre-incubation), sheet Screening results
[5] = 0’ (pre-incubation time), Pathogen Box screening results
[6] = 10’ (pre-incubation time), Pathogen Box screening results

Structure (SMILES) | Cruzain 0’ Inhibition (cruzain; [1]) | Cruzain 10’ Inhibition (cruzain; [2]) | TbrCatL 0’ Inhibition (TbrCatL; 0’ (pre-incubation time)) | TbrCatL 10’ Inhibition (TbrCatL; 10’ (pre-incubation time)) | Cruzain Inhibition 0’ (cruzain; [3]) | Cruzain Inhibition 10’ (cruzain; [4]) | TbrCatL Inhibition 0’ (TbrCatL; [3]) | TbrCatL Inhibition 10’ (TbrCatL; [4]) | also measured
O=C(Nc1cccc(Cl)c1)c1cnc(N2CCN(c3ccncc3)CC2)c(Cl)c1 [MMV024406] | 17% | 25% | 3% | 20% | – | – | – | – | –
O=C1O[C@@H](CO)CN1c1cc(F)c(C2=CCN(Cc3ccccc3)CC2)c(F)c1 [MMV687729] | -2% | 6% | -0.7% | -6.5% | – | – | – | – | –
CS(=O)(=O)c1ccccc1C(=O)N(Cc1ccccc1)c1ccccc1 [MMV688798] | – | – | – | – | 13% | 1.2% | 1.5% | -1.9% | –
N#Cc1ccc(-c2cnc(N)c(-c3ccc(C(N)=O)cc3)n2)cc1 [MMV085499] | – | – | – | – | – | – | – | – | inhibition at 5 µM (cruzain; read-out: Cruzain 0’ Inhibition, 0’ (pre-incubation time), sheet "Screening results"): 0.5%; inhibition at 5 µM (cruzain; read-out: Cruzain 10’ Inhibition, 10’ (pre-incubation time), sheet "Screening results"): 25%; inhibition at 5 µM (cruzain; read-out: Inhibition at 5 µM (Mean ± SEM %) Cruzain 0′, 5 µM, no pre-incubation, initial screening): 2 ± 3%; inhibition at 5 µM (cruzain; read-out: Inhibition at 5 µM (Mean ± SEM %) Cruzain 10′ inc, 5 µM, 10′ pre-incubation, initial screening): 25 ± 4%; inhibition at 100 µM (cruzain; read-out: Inhibition at 100 µM (Mean ± SEM %) Cruzain 0′, 100 µM, no pre-incubation, solid samples): 0%; inhibition at 100 µM (cruzain; read-out: Inhibition at 100 µM (Mean ± SEM %) Cruzain 10′ inc, 100 µM, 10′ pre-incubation, solid samples): 0%; inhibition at 5 µM (cruzain; read-out: Inhibition of cruzain or TbrCatL (either enzyme) in the initial screening, 5 µM, either cruzain or TbrCatL, with or without pre-incubation): ≥ 40%; inhibition at 5 µM (TbrCatL; read-out: Inhibition at 5 µM (Mean ± SEM %) TbrCatL 0′): 12 ± 8%; inhibition at 5 µM (TbrCatL; read-out: Inhibition at 5 µM (Mean ± SEM %) TbrCatL 10′ inc): 46 ± 5%; inhibition at 100 µM (TbrCatL; read-out: Inhibition at 100 µM (Mean ± SEM %) TbrCatL 0′): 26 ± 18%; inhibition at 100 µM (TbrCatL; read-out: Inhibition at 100 µM (Mean ± SEM %) TbrCatL 10′ inc): 0%; inhibition at 5 µM (TbrCatL; read-out: TbrCatL 0’ Inhibition): 9%; inhibition at 5 µM (TbrCatL; read-out: TbrCatL 10’ Inhibition): 46%
Cc1ccc(NC(=O)c2nc[nH]c2C(=O)Nc2nc3ccccc3[nH]2)c(C)c1 [MMV011903] | – | – | – | – | -1.2% | -15% | -18% | -43% | –
NCCN(C(=O)c1ccc(Cl)cc1Cl)c1ccc(OCc2ccc(Cl)cc2)cc1 [MMV688371] | – | – | – | – | 9% | 12% | 6% | 1% | –
O=C(Nc1n[nH]c(=S)s1)c1cc(Br)ccc1Cl [MMV676492] | – | – | – | – | – | – | – | – | Cruzain Inhibition 0’ (cruzain; [5]): 10%; Cruzain Inhibition 10’ (cruzain; [6]): 27%; TbrCatL Inhibition 0’ (TbrCatL; [5]): -16%; TbrCatL Inhibition 10’ (TbrCatL; [6]): 35%
COc1ccc(OC(C)C(=O)Nc2ccc(Cl)cc2C)cc1 (stereo not shown) [MMV202458] | – | – | – | – | -14% | -11% | -16% | -19% | –
COc1cc(CN2CCC3(C=Cc4ccccc43)CC2)cc2c1OCO2 [MMV688941] | 1.7% | 6% | -3.2% | -4% | – | – | – | – | –
CCOc1ccccc1C(=O)Nc1cccc(-c2nc3ncccn3c2C)c1 [MMV019790] | 3.2% | 4% | 8% | -0.3% | – | – | – | – | –
O=C([C@@H](c1ccc(Cl)cc1)c1cccnc1)N1CCN(c2ccc(C(F)(F)F)cc2)CC1 [MMV689244] | 2.7% | -3.2% | 6.4% | -2.8% | – | – | – | – | –
COc1cc(C2=NCCN2)ccc1-n1cc(-c2cccc(C3=NCCN3)c2)nn1 [MMV688474] | 2.4% | 13% | 10% | 30% | – | – | – | – | –
CCCn1c(NC(=O)c2ccc3ccccc3n2)nc2ccccc21 [MMV1030799] | -3.4% | 2.4% | -8% | -11% | – | – | – | – | –
c1ccc(-c2cc(N3CCCCC3)c3ccccc3n2)nc1 [MMV560185] | – | – | – | – | 5.5% | -4.5% | 4.5% | -2.4% | –
CCC(Sc1nc2ccccc2o1)C(=O)Nc1nccs1 (stereo not shown) [MMV676383] | – | – | – | – | 3.5% | 4% | 10% | 7.5% | –
CC(C)(C)n1nc(-c2ccccc2)c2c(N)ncnc21 [MMV688548] | – | – | – | – | 8% | 10% | 20% | 12% | –
Cc1nn(C(=O)Nc2cccc(C(F)(F)F)c2)c(C)c1Sc1ncccn1 [MMV688552] | – | – | – | – | – | – | – | – | Cruzain Inhibition 0’ (cruzain; [5]): 2.3%; Cruzain Inhibition 10’ (cruzain; [6]): 0.1%; TbrCatL Inhibition 0’ (TbrCatL; [5]): -0.1%; TbrCatL Inhibition 10’ (TbrCatL; [6]): 5%
Cc1nc(-c2ccccn2)nc(NCCc2ccc(S(C)(=O)=O)cc2)c1Cl [MMV658993] | -6.4% | 9% | -11% | -12% | – | – | – | – | –
CC(C)n1ncc2c(C(=O)NCC(c3cccs3)N3CCOCC3)cc(-c3ccccc3)nc21 (stereo not shown) [MMV676406] | – | – | – | – | 6% | 6% | 17% | 15% | –
COc1ccc(C2=NCCN2)cc1-c1cn(-c2cccc(C3=NCCN3)c2)nn1 [MMV688547] | – | – | – | – | 10% | 13% | 6% | 4% | –
O=C(NC1CCN(c2ccnc3ccccc23)C1)c1cccc(C(F)(F)F)c1 (stereo not shown) [MMV023388] | 8% | 14% | 10% | 13% | – | – | – | – | –
Clc1ccc(Cl)c(CO[C@H]2CCCC[C@@H]2n2ccnc2)c1 [MMV676048] | 2.8% | 5.7% | 0.8% | -3.8% | – | – | – | – | –
Nc1ncnc2c1c(Cc1cccc3ccccc13)nn2CC1CCNCC1 [MMV676182] | -4.4% | 4.5% | 1.4% | 3.4% | – | – | – | – | –
C[C@H]1COc2c(N3CCN(C)CC3)c(F)cc3c(=O)c(C(=O)O)cn1c23 [MMV687798] | 4.7% | 6% | -4.6% | -1.6% | – | – | – | – | –
CC(C)C(Oc1cccc2ccccc12)C(=O)O (stereo not shown) [MMV676191] | 2.8% | 1.5% | -3% | 2% | – | – | – | – | –
O=C(NC1CCCCC1)N1CCN(Cc2ccc3c(c2)OCO3)CC1 [MMV676444] | – | – | – | – | 0.4% | 5.5% | 9% | 8% | –
Cc1ccc(-c2nc(CN(Cc3ccccn3)C(C)C)cs2)o1 [MMV1088520] | -17% | -15% | -6% | -24% | – | – | – | – | –
C[C@@H]1[C@H](O)[C@@H](C)/C=C/C=C/C=C/C=C/C=C/C=C/C=C/[C@H](O[C@@H]2O[C@H](C)[C@@H](O)[C@H](N)[C@@H]2O)C[C@@H]2O[C@](O)(C[C@@H](O)C[C@@H](O)[C@H](O)CC[C@@H](O)C[C@@H](O)CC(=O)O[C@H]1C)C[C@H](O)[C@H]2C(=O)O [MMV689000] | 10% | 10% | 11% | 9% | – | – | – | – | –
